“And” between values parts separate entries of the source, which are not always exact repeats. Identical values can stand only once. Inconclusive results and toxic doses are left out. Cut-off read from the data, not from the text of the source: active = T/C of 150% or more; inactive = T/C below 125%.
Test system: L1210 leukemia ip in BDF1 mice, survival T/C
Experiment: NCI In Vivo Anticancer Drug Screen. Data for tumor model L1210 Leukemia (intraperitoneal) in B6D2F1 (BDF1) mice
Conditions: endpoint: mean survival time, higher = longer survival
Outline: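 Antitumor effect is assessed in tumor-bearing animals. Survival in the compound arm is compared with a vehicle-dosed control arm and expressed as their quotient.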

[1] = dose: 100.0 mg/kg/injection, schedule: Q04DX003 (ip), vehicle: saline
[2] = dose: 50.0 mg/kg/injection, schedule: Q01DX009 (ip), vehicle: saline with Tween-80
[3] = dose: 100.0 mg/kg/injection, schedule: Q01DX009 (ip), vehicle: saline with Tween-80
[4] = dose: 200.0 mg/kg/injection, schedule: Q01DX009 (ip), vehicle: saline with Tween-80
[5] = dose: 100.0 mg/kg/injection, schedule: Q01DX009 (ip), vehicle: Klucel (hydroxypropylcellulose) (HPC)
[6] = dose: 200.0 mg/kg/injection, schedule: Q01DX009 (ip), vehicle: Klucel (hydroxypropylcellulose) (HPC)
[7] = dose: 400.0 mg/kg/injection, schedule: Q01DX009 (ip), vehicle: Klucel (hydroxypropylcellulose) (HPC)
[8] = dose: 100.0 mg/kg/injection, schedule: Q04DX003 (ip), vehicle: saline with Tween-80
[9] = dose: 200.0 mg/kg/injection, schedule: Q04DX003 (ip), vehicle: saline with Tween-80
[10] = dose: 100.0 mg/kg/injection, schedule: Q01DX001 (ip), vehicle: saline
[11] = dose: 200.0 mg/kg/injection, schedule: Q01DX001 (ip), vehicle: saline
[12] = dose: 400.0 mg/kg/injection, schedule: Q01DX001 (ip), vehicle: saline
[13] = dose: 100.0 mg/kg/injection, schedule: Q01DX009 (ip), vehicle: saline
[14] = dose: 200.0 mg/kg/injection, schedule: Q01DX009 (ip), vehicle: saline
[15] = dose: 200.0 mg/kg/injection, schedule: Q04DX003 (ip), vehicle: saline
[16] = dose: 400.0 mg/kg/injection, schedule: Q01DX009 (ip), vehicle: saline
[17] = dose: 400.0 mg/kg/injection, schedule: Q04DX003 (ip), vehicle: saline
[18] = dose: 100.0 mg/kg/injection, schedule: Q01DX001 (ip), vehicle: Klucel (hydroxypropylcellulose) (HPC)
[19] = dose: 200.0 mg/kg/injection, schedule: Q01DX001 (ip), vehicle: Klucel (hydroxypropylcellulose) (HPC)
[20] = dose: 400.0 mg/kg/injection, schedule: Q01DX001 (ip), vehicle: Klucel (hydroxypropylcellulose) (HPC)

Measured: T/C

C=CCNC(=O)c1ccccc1OCC(=O)O
inactive: dose: 100.0 mg/kg/injection, schedule: Q01DX009 (ip), vehicle: gum acacia 93 % of control | dose: 100.0 mg/kg/injection, schedule: Q04DX003 (ip), vehicle: gum acacia 103 % of control | dose: 200.0 mg/kg/injection, schedule: Q01DX009 (ip), vehicle: gum acacia 88 % of control | dose: 200.0 mg/kg/injection, schedule: Q04DX003 (ip), vehicle: gum acacia 100 % of control | dose: 400.0 mg/kg/injection, schedule: Q01DX009 (ip), vehicle: gum acacia 94 % of control | dose: 400.0 mg/kg/injection, schedule: Q04DX003 (ip), vehicle: gum acacia 97 % of control

CC1CC(C)(C)[N+](C)=C(CC(C)(C)O)O1 (stereo unspecified)
inactive: [1] 113 % of control

C=CCc1cc(CN(CCO)Cc2cc(CC=C)cc(OC)c2O)c(O)c(OC)c1
inactive: dose: 12.5 mg/kg/injection, schedule: Q04DX003 (ip), vehicle: Klucel (hydroxypropylcellulose) (HPC) 95 % of control | dose: 25.0 mg/kg/injection, schedule: Q04DX003 (ip), vehicle: Klucel (hydroxypropylcellulose) (HPC) 101 % of control | dose: 50.0 mg/kg/injection, schedule: Q04DX003 (ip), vehicle: Klucel (hydroxypropylcellulose) (HPC) 95 % of control

O=C(NC1C=CCCC1)c1ccccc1 (stereo unspecified)
inactive: [2] 102 % of control | [3] 96 % of control | [4] 96 % of control

COc1ccc(/C=N/NC(=O)/C=C/c2ccccc2)c(OC)c1
inactive: [5] 97 % of control | [6] 98 % of control | [7] 92 % of control

Nc1ccc(I)cc1
inactive: [8] 104 % of control | [9] 109 % of control

CC(=O)OC1C2CC3C(C2)C31 (stereo unspecified)
inactive: [2] 105 % of control | [3] 97 % of control | [4] 94 % of control

COc1ccc(CCNC(=S)NC(=O)c2ccccc2)cc1OC
inactive: dose: 100.0 mg/kg/injection, schedule: Q01DX009 (sc), vehicle: olive oil, sesame oil, peanut oil 98 % of control | dose: 100.0 mg/kg/injection, schedule: Q04DX003 (sc), vehicle: olive oil, sesame oil, peanut oil 100 % of control | dose: 200.0 mg/kg/injection, schedule: Q01DX009 (sc), vehicle: olive oil, sesame oil, peanut oil 104 % of control | dose: 200.0 mg/kg/injection, schedule: Q04DX003 (sc), vehicle: olive oil, sesame oil, peanut oil 98 % of control | dose: 400.0 mg/kg/injection, schedule: Q01DX009 (sc), vehicle: olive oil, sesame oil, peanut oil 98 % of control | dose: 400.0 mg/kg/injection, schedule: Q04DX003 (sc), vehicle: olive oil, sesame oil, peanut oil 103 % of control

O=C1c2cccc3c([N+](=O)[O-])ccc(c23)C(=O)N1CCCN1CCOCC1
inactive: dose: 25.0 mg/kg/injection, schedule: Q01DX009 (ip), vehicle: Klucel (hydroxypropylcellulose) (HPC) 104 % of control | dose: 50.0 mg/kg/injection, schedule: Q01DX009 (ip), vehicle: Klucel (hydroxypropylcellulose) (HPC) 98 % of control | [5] 93 % of control and 87 % of control

O=C(Nc1ccc(NC(=O)Nc2cc(C3=NCCN3)cc(C3=NCCN3)c2)cc1)Nc1cc(C2=NCCN2)cc(C2=NCCN2)c1
inactive: dose: 15.0 mg/kg/injection, schedule: Q01DX Z (ip), vehicle: saline 90 % of control

Cc1ccc(S(=O)(=O)[N-][n+]2ccccc2)cc1
inactive: [5] 93 % of control | [6] 93 % of control

CCN(c1ccccc1)C1CCCCC1=O (stereo unspecified)
inactive: [10] 101 % of control | [11] 106 % of control | [12] 104 % of control

O=[N+]([O-])c1ccc(/C=N/N2CCCCC2)s1
inactive: [8] 97 % of control | [9] 92 % of control | dose: 400.0 mg/kg/injection, schedule: Q04DX003 (ip), vehicle: saline with Tween-80 89 % of control

NC(=O)n1nccc1N
inactive: [13] 100 % of control | [1] 94 % of control | [14] 103 % of control | [15] 104 % of control | [16] 105 % of control | [17] 91 % of control

COc1ccccc1/C=N/Nc1nnc(N/N=C/c2ccccc2OC)c2ccccc12
inactive: dose: 50.0 mg/kg/injection, schedule: Q01DX001 (ip), vehicle: carboxymethylcellulose (CMC) 107 % of control | dose: 100.0 mg/kg/injection, schedule: Q01DX001 (ip), vehicle: carboxymethylcellulose (CMC) 103 % of control | dose: 200.0 mg/kg/injection, schedule: Q01DX001 (ip), vehicle: carboxymethylcellulose (CMC) 101 % of control | dose: 400.0 mg/kg/injection, schedule: Q01DX001 (ip), vehicle: carboxymethylcellulose (CMC) 103 % of control

O=C(NC(=S)Nc1cccc(Cl)c1)c1cccc(Br)c1
inactive: [18] 86 % of control | [5] 98 % of control and 90 % of control | dose: 100.0 mg/kg/injection, schedule: Q04DX002 (ip), vehicle: Klucel (hydroxypropylcellulose) (HPC) 91 % of control | dose: 100.0 mg/kg/injection, schedule: Q04DX003 (ip), vehicle: Klucel (hydroxypropylcellulose) (HPC) 108 % of control | [19] 117 % of control | [6] 98 % of control and 90 % of control | dose: 200.0 mg/kg/injection, schedule: Q04DX002 (ip), vehicle: Klucel (hydroxypropylcellulose) (HPC) 93 % of control and 91 % of control | dose: 200.0 mg/kg/injection, schedule: Q04DX003 (ip), vehicle: Klucel (hydroxypropylcellulose) (HPC) 107 % of control | [20] 86 % of control | [7] 87 % of control and 91 % of control | dose: 400.0 mg/kg/injection, schedule: Q04DX002 (ip), vehicle: Klucel (hydroxypropylcellulose) (HPC) 93 % of control and 91 % of control | dose: 400.0 mg/kg/injection, schedule: Q04DX003 (ip), vehicle: Klucel (hydroxypropylcellulose) (HPC) 96 % of control

S=c1nc2[nH]c3ccccc3c2n[nH]1
inactive: [8] 94 % of control | [9] 89 % of control

CN(C)c1ccc(C(Nc2ccccc2)C(Nc2ccccc2)c2ccc(N(C)C)cc2)cc1 (stereo unspecified)
inactive: dose: 100.0 mg/kg/injection, schedule: Q01DX001 (ip), vehicle: other 102 % of control | dose: 200.0 mg/kg/injection, schedule: Q01DX001 (ip), vehicle: other 87 % of control | dose: 400.0 mg/kg/injection, schedule: Q01DX001 (ip), vehicle: other 89 % of control

O=S(=O)(O)C(O)C(Cl)(Cl)Cl (stereo unspecified)
inactive: [10] 103 % of control | [13] 98 % of control | [1] 107 % of control | [11] 101 % of control | [14] 101 % of control | [15] 96 % of control | [12] 98 % of control | [16] 98 % of control | [17] 95 % of control

CC(=O)OC1CCC2(C)C(=CCC3C2CCC2(C)C3CCC2(O)C(C)=O)C1 (stereo unspecified)
inactive: [18] 101 % of control | [19] 97 % of control | [20] 98 % of control

CCOC(=O)NNC(=S)Nc1cccc(C(F)(F)F)c1
inactive: dose: 100.0 mg/kg/injection, schedule: Q04DX002 (ip), vehicle: saline with Tween-80 111 % of control | dose: 200.0 mg/kg/injection, schedule: Q04DX002 (ip), vehicle: saline with Tween-80 108 % of control

NCc1cc2c3c(c1)CCCN3CCC2
inactive: dose: 12.5 mg/kg/injection, schedule: Q01DX001 (ip), vehicle: saline 111 % of control | dose: 12.5 mg/kg/injection, schedule: Q01DX009 (ip), vehicle: saline 97 % of control | dose: 25.0 mg/kg/injection, schedule: Q01DX001 (ip), vehicle: saline 107 % of control | dose: 25.0 mg/kg/injection, schedule: Q01DX009 (ip), vehicle: saline 97 % of control | dose: 50.0 mg/kg/injection, schedule: Q01DX001 (ip), vehicle: saline 105 % of control | dose: 50.0 mg/kg/injection, schedule: Q01DX009 (ip), vehicle: saline 104 % of control

CC1CCC2(CC1)CCN(CCCN(C)C)CC2
inactive: dose: 15.0 mg/kg/injection, schedule: Q01DX015 (ip), vehicle: saline 102 % of control | dose: 30.0 mg/kg/injection, schedule: Q01DX015 (ip), vehicle: saline 102 % of control | dose: 60.0 mg/kg/injection, schedule: Q01DX015 (ip), vehicle: saline 100 % of control | dose: 120.0 mg/kg/injection, schedule: Q01DX015 (ip), vehicle: saline 104 % of control | dose: 200.0 mg/kg/injection, schedule: Q01DX015 (ip), vehicle: saline 107 % of control
